Experimental data taken from ChEMBL document CHEMBL3507680, “University of Dundee, Gates Library screen for HepG2 cell viability”.

Assay: Human HepG2 cell viability assay in 384 well format
Assay type: toxicity, cell-based
Design: dose 125 nL, time 70.5 hour; cytotoxicity at 70.5 h: concentration not given beside the values
Settings: HepG2 cells, read-out: Inhibition
With `Cc1ccc(N2C[C@H]3OCC[C@H]3[C@H](C(=O)NC3CCC3)C2)nn1` the cytotoxicity at 70.5 h was -13%. `CC(C)(C)n1cc(C(=O)N2CCN(Cc3ccncc3)CC2)cn1` gave a cytotoxicity at 70.5 h of -2.1%. In the case of `CC(=O)N1CCC(N2CCOC[C@H]2c2nc(-c3ccc(Cl)s3)c[nH]2)CC1`, the cytotoxicity at 70.5 h is reported as -2.53%. In the case of `Cc1cc(CS(=O)(=O)c2ccccc2)no1`, the cytotoxicity at 70.5 h is reported as -5.49%. `OCC(O)CN(CCN1CCOCC1)Cc1ccco1` (centres undefined) gave a cytotoxicity at 70.5 h of -8.67%. `COc1cccc(C)c1C(=O)N1C[C@@H](CN(C)C)[C@@H](CO)C1` showed a cytotoxicity at 70.5 h of -4.7%. For `Cc1ccc(S(=O)(=O)NCC2CNCCOC2)cc1Cl` (centres undefined), the cytotoxicity at 70.5 h was -2.6%. In the case of `CC(C)CC(=O)N1CCN(C(=O)NC(C)C)CC2(CC(=O)N(C)C2)C1` (centres undefined), the cytotoxicity at 70.5 h is reported as -18.5%. For `CCOCCn1nc(C)cc1C(=O)N1C[C@@H](C)[C@](O)(C2CC2)C1`, the cytotoxicity at 70.5 h was -2.07%. `CCCN1C[C@H]2CC[C@@H]1CN(Cc1ccc(Cn3cccn3)cc1)C2` showed a cytotoxicity at 70.5 h of -7.61%. Compound `Cc1noc(C)c1CNc1cccc(C(=O)N2CCCC(O)C2)c1` (centres undefined) has a cytotoxicity at 70.5 h of -9.24%. `Cc1ccc(C(O)CNCc2c(C(C)C)nn(C)c2N(C)C)cc1` (centres undefined) gave a cytotoxicity at 70.5 h of 0.581%. In the case of `CC(C)[C@H](N)C(=O)N1CCCC(C2=Nc3ccccc3S(=O)(=O)N2)C1` (some centres undefined), the cytotoxicity at 70.5 h is reported as -9.78%. Work on `Cc1nccc([C@H]2C[C@@H]3CCN(S(=O)(=O)N(C)C)C[C@H]3O2)n1` yielded a cytotoxicity at 70.5 h of -10.6%. In the case of `COc1ccc(-c2ccccc2CCN)c(OC)c1`, the cytotoxicity at 70.5 h is reported as -10.1%. Work on `Cc1ccc2oc(CN3CCn4nc(CCC(=O)O)cc4C3)c(C)c2c1` yielded a cytotoxicity at 70.5 h of 32%. `O=C(c1ccsc1)N1C[C@@H]2OCCN(CCN3CCCC3)[C@@H]2C1` gave a cytotoxicity at 70.5 h of 16.6%. Work on `CC(C)c1nccn1C1CCCN(C(=O)c2nccnc2N)C1` (centres undefined) yielded a cytotoxicity at 70.5 h of 17.2%. For `CCOCCCNC(=O)CCCC(=O)n1nc(C)c2ccccc21`, the cytotoxicity at 70.5 h was -3.2%. Work on `CCn1ccnc1CN1CCCN(C(=O)c2ccnn2C)CC1` yielded a cytotoxicity at 70.5 h of -3.84%. `CCc1cc(NCc2ccccc2CN2CCCC2)n2ncnc2n1` showed a cytotoxicity at 70.5 h of 29.1%. `NC(=O)C1CCN(C(=O)Cc2ccc(Cl)c(Cl)c2)CC1` gave a cytotoxicity at 70.5 h of -2.27%. In the case of `CCCc1noc(CNc2ccc(C(=O)N3CCCC3)cc2C)n1`, the cytotoxicity at 70.5 h is reported as -0.0635%. Compound `Cc1nc(C)n(CC2CCCN2Cc2nc(C)c3ccccc3n2)n1` (centres undefined) has a cytotoxicity at 70.5 h of -7.3%. With `O=C(Cc1ccccc1)NCCNC(=O)c1scnc1Cl` the cytotoxicity at 70.5 h was -9.54%. In the case of `CC(=O)N1CCCN(C(=O)CN(C)c2ccc(Cl)cn2)CC1`, the cytotoxicity at 70.5 h is reported as 10.7%. With `CC(C)c1nccn1Cc1cc(C(=O)NCC(C)n2ccnc2)n[nH]1` (centres undefined) the cytotoxicity at 70.5 h was -6.98%. `CC(=O)c1cn(CC(=O)N2CCC(O)(CO)CC2)c2ccccc12` gave a cytotoxicity at 70.5 h of -0.902%. In the case of `NC(=O)CN1CCCC(CCCc2ccccn2)(C(N)=O)C1` (centres undefined), the cytotoxicity at 70.5 h is reported as -3%. For `CCC[C@@H]1CN(C(=O)c2cc(-c3cccs3)n(C)n2)C[C@H]1NS(C)(=O)=O`, the cytotoxicity at 70.5 h was -4.08%. For `CCOc1ccccc1C(CC(=O)Nc1ccc(C)cn1)NC(C)=O` (centres undefined), the cytotoxicity at 70.5 h was -9.08%. For `O=S1(=O)NC(C2CCCN(S(=O)(=O)N3CCCC3)C2)=Nc2ccccc21` (centres undefined), the cytotoxicity at 70.5 h was -6.9%. Work on `CN(C)C(=O)CN1C[C@H]2CCN(Cc3ccccc3)CC[C@H]2S1(=O)=O` yielded a cytotoxicity at 70.5 h of -8.74%. With `Cc1ccc(CN(Cc2nc3c(cnn3C)c(=O)[nH]2)C(C)C)s1` the cytotoxicity at 70.5 h was -0.211%. `c1csc(CN2CCC3(CCCN(c4nncs4)C3)C2)n1` (centres undefined) gave a cytotoxicity at 70.5 h of -1.22%. `COCc1cc(NCCc2ccc(F)cc2)n2nccc2n1` gave a cytotoxicity at 70.5 h of -0.706%. Compound `CCc1n[nH]c(C2CN(C(=O)CCn3ccccc3=O)CCO2)n1` (centres undefined) has a cytotoxicity at 70.5 h of -2.35%. For `CCCN(Cc1ccccn1)Cc1ccccc1OC`, the cytotoxicity at 70.5 h was -6.2%. `N#Cc1cccc(OC23CCCN(CC2)C3)c1` (centres undefined) gave a cytotoxicity at 70.5 h of 13.6%. `Cn1ncc2c1C(COCC1CC1)CN(Cc1ccc(F)cc1)C2` (centres undefined) showed a cytotoxicity at 70.5 h of 25.3%. `Cn1ccnc1-c1cnn(CC(=O)Nc2ccnn2C)c1` gave a cytotoxicity at 70.5 h of -3%. In the case of `CN(Cc1ccco1)C(=O)c1cccc(N2CCCC2=O)c1`, the cytotoxicity at 70.5 h is reported as -8.03%. Compound `CC(C)(C)c1nc(NS(=O)(=O)c2ccc(F)cc2)no1` has a cytotoxicity at 70.5 h of -17.2%. Compound `Cn1nnnc1SCCC(=O)NCC1Cc2ccccc2O1` (centres undefined) has a cytotoxicity at 70.5 h of -23.7%. With `CN(Cc1cc2ccccc2o1)S(C)(=O)=O` the cytotoxicity at 70.5 h was -1.88%. Work on `Cn1cc(NC(=O)N2CCC(OCc3ccccc3)CC2)ccc1=O` yielded a cytotoxicity at 70.5 h of -9.18%. For `Cc1cnccc1-c1cnn(CCNC(=O)C(C)(C)C)c1C1CC1`, the cytotoxicity at 70.5 h was -9.87%. Work on `CC(C)n1nc2c(cc1=O)CN(CCOc1ccccc1C#N)CC2` yielded a cytotoxicity at 70.5 h of 6.74%. With `Cc1cccc(N2CC[C@@H]3[C@@H](CO[C@H]3CNC(=O)c3ccco3)C2)n1` the cytotoxicity at 70.5 h was -0.126%. Compound `CCc1nc2n(n1)CC(NCC(=O)Nc1nccs1)CC2` (centres undefined) has a cytotoxicity at 70.5 h of 8%. With `Cc1c(I)cccc1C(=O)NCc1ncc[nH]1` the cytotoxicity at 70.5 h was -0.0896%. `CCC(CO)Nc1nc(C(F)F)nc2ccccc12` (centres undefined) showed a cytotoxicity at 70.5 h of -11.3%. In the case of `Cc1cc(C)n(CNc2nonc2C(N)=O)n1`, the cytotoxicity at 70.5 h is reported as 36%. `CC(C)c1nsc(N2CCn3c(nnc3C(F)(F)F)C2)n1` showed a cytotoxicity at 70.5 h of 4.03%. With `COc1cc(N2C[C@@H]3COC[C@@H](Cc4nc(C)no4)[C@@H]3C2)ncn1` the cytotoxicity at 70.5 h was -7.51%. In the case of `CN(Cc1n[nH]c2c1CCC2)c1nc(C2CCCC2)nc2c1CNC2`, the cytotoxicity at 70.5 h is reported as -8.94%. In the case of `Cc1cc(C)n(CC2CCCN2C(=O)c2cccnc2N(C)C)n1` (centres undefined), the cytotoxicity at 70.5 h is reported as -8.62%. Work on `O=C([C@H]1CN(Cc2ccoc2)C[C@H]2OCC[C@@H]12)N1CCCCO1` yielded a cytotoxicity at 70.5 h of -4.73%. For `Cc1c[nH]c(CN(C)C(=O)[C@]23CNC[C@H]2CNC3)n1`, the cytotoxicity at 70.5 h was -4.74%. `CC(c1nc(C2CC2)no1)N(C)Cc1ccc(Cl)cc1` (centres undefined) gave a cytotoxicity at 70.5 h of -3.08%. Work on `COc1ncnc2c1CCN(Cc1cccc(C)n1)CC2` yielded a cytotoxicity at 70.5 h of 5.99%. With `CC1CCCN1Cc1ccccc1-c1nc(C(C)(C)C)cc(=O)[nH]1` (centres undefined) the cytotoxicity at 70.5 h was 31.4%. For `Cc1c(C(C)NCC2CCCC2)cnn1-c1ccc(F)cc1F` (centres undefined), the cytotoxicity at 70.5 h was -11.6%. Compound `O=C(c1ccncc1)N1CCCC2(COCCN(c3ccccc3)C2)C1` (centres undefined) has a cytotoxicity at 70.5 h of -16.1%. For `Cc1noc(C)c1C(=O)N1C[C@@H]2CN(Cc3cccnc3)CCO[C@@H]2C1`, the cytotoxicity at 70.5 h was -7.03%. `COc1cc(CCC(=O)NC(C)(C)C)ccc1OCC(F)(F)F` showed a cytotoxicity at 70.5 h of -9.72%. For `O=C(Cc1ccc2c(c1)OCO2)N1CCN(c2ccccc2Cl)C(=O)C1`, the cytotoxicity at 70.5 h was -4.7%. Work on `COc1ccc2nc(CCNC(=O)c3cc(CC(C)C)no3)[nH]c2c1` yielded a cytotoxicity at 70.5 h of -15.4%. `CC(C)[C@H]1CN(Cc2ccccn2)C[C@@H]1NC(=O)CCS(C)(=O)=O` gave a cytotoxicity at 70.5 h of -4.06%. With `CCOc1cc(C)nc(N2CCN(C(=O)Cn3cc(C)cn3)CC2)n1` the cytotoxicity at 70.5 h was -0.0989%. With `CCOC(=O)N1CCN(C(=O)C(CC)n2cccn2)CC1` (centres undefined) the cytotoxicity at 70.5 h was 5.86%. With `CN(C)CCN(C)C(=O)c1cnc2c(c1)nc(-c1ccccc1Cl)n2C` the cytotoxicity at 70.5 h was -5.91%. With `CC(=O)N1CC(c2ncn(C(C)C)n2)c2cc(C(=O)NC3CC3)ccc21` (centres undefined) the cytotoxicity at 70.5 h was 14.1%. For `COCC(=O)N[C@H](C)c1onc(-c2ccccc2)c1C(=O)O`, the cytotoxicity at 70.5 h was -4.32%. `c1cc(CNCC2CNc3ccnn3C2)cc(OC2CCCC2)n1` (centres undefined) showed a cytotoxicity at 70.5 h of -5.92%. With `Cc1ccccc1-c1cncc(C2CCN(Cc3ccccn3)CC2)n1` the cytotoxicity at 70.5 h was -3.39%. For `OCCN1CCN(Cc2coc(-c3cccc(Cl)c3)n2)CC1`, the cytotoxicity at 70.5 h was 24.5%. Work on `Cc1ccc(C(=O)N2CCOC(c3nc(-c4ncccn4)no3)C2)cc1` (centres undefined) yielded a cytotoxicity at 70.5 h of -2.85%. Work on `Cc1nc(CN2CCN(c3cncc(Cl)n3)CC2)no1` yielded a cytotoxicity at 70.5 h of -9.09%.
